Results on three substances are retold here after PMC2118091 (The Journal of Experimental Medicine, 2006).

Assay [1] deals with IgM CM-22. As to the kind of experiment: SPR analysis of peptide binding to IgM CM-22. Also on record: species or system mouse. For orientation: In SPR one partner is held on a chip, and binding of the other changes the refractive index at the surface.
Assay [2] concerns IgM, complement C4 and C3. The assay can be described thus: Immunohistology of IgM, C4 and C3 deposition after intestinal RI in WT mice. In kind it is in vivo, mouse. Particulars: RI-treated WT mice given P8 peptide; unpublished data.
A further assay has as its system WT mice. As to the kind of experiment: Intestinal RI model in WT mice, pathology score. It counts as in vivo, mouse. As to conditions: final serum concentration, i.v. 5 min before reperfusion.
Assay [3] concerns IgM CM-22. As to the kind of experiment: Titration of P8 peptide with IgM CM-22. More on the design: species or system mouse. As to conditions: 200 μg IgM CM-22 (0.1–0.2 μM); unpublished data.
The next assay deals with complement C3. As to conditions: pretreatment of rats, myocardial infarction model; cited from earlier work.

As for “AGCMPYVRIPTA [control peptide, reference compound]”, the “binding to IgM CM-22 surface” value in the assay on IgM CM-22 [1] (SPR, PBS, 25°C, control peptide injected at 117 μM) is “no binding”.
In the case of NGNNVNGNRNNN [P8 peptide], the “IgM, C4 and C3 deposition within microvilli” value in assay [2] is listed as “colocalized within microvilli of RI-treated WT mice but not in mice administered P8 peptide”. Moreover, the “protective concentration in intestinal RI” value with WT mice was 10 µM. In the assay with IgM CM-22 [1] (comparison in words, no KD printed for P8), the “CM-22 binding affinity relative to N2” value is on record as “higher CM-22 binding affinity relative to N2”. Also, in the assay on IgM CM-22 [3], the “optimal peptide concentration sufficient to block IgM CM-22” value was approximately 10 µM.
As for “sCR1: specific soluble inhibitor of complement C3 (sCR1)”, the “myocardial injury” value with complement C3 was “dramatically reduced injury”.
